According to patent publication US20250026766A1, “Thiazolopyridyl Amide Derivatives as DNA Polymerase Theta Inhibitors” (BeiGene, Ltd., priority 2022, published 2025):

Target: Pol Theta (1-894) (Homo sapiens (Human), UniProt O75417)
Assay: Biochemical Pol Theta (1-894) ATPase IC50 assay (ADP-Glo, ssDNA substrate)
Details: ADP-Glo assay with ssDNA substrate, room temperature
Procedure: Baculovirus Expression of Human POL theta (1-894)
Human POL Theta (1-894)-His-pFastBac1 baculovirus samples were generated using the Bac-to-Bac baculovirus expression system (Invitrogen) according to the manufacturer's protocol. […] Baculovirus amplification was achieved using infected SF9 cells at 1:2000 virus/cells ratios, and grown for 96 hours at 27° C. post-transfection. The expression scaled up for each protein was carried out in the flask 3 L from CORNING. 4 L of 3×10^6 cells/mL Sf9 cells (Expression System, Invitrogen) grown in SF900TM II SFM insect medium (Expression System) were infected with virus stock at 1:200 virus/cell ratios, and grown for 48 hours at 27° C. post-transfection. The infected cell culture was harvested by centrifugation at 6000 rpm for 15 min 4° C. in a SORVALL LYNX6000 centrifuge. The cell pellets were stored at −80° C.
The human POL Theta (1-894)-His produced as described above, were purified from Sf9 baculovirus-infected insect cell paste. The cells were lysed using sonication method, and the lysates were clarified by centrifugation.
Enzymatic reactions of Pol Theta (1-894) were performed using ADP-Glo assay with ssDNA substrate. Pol Theta (1-894) was expressed in baculovirus expression system. The inhibition activities testing for the compound disclosed herein were carried out at room temperature in assay buffer containing 40 mM Tris pH 7.5, 20 mM MgCl2, 1 mM DTT, 0.01% BSA and 0.05% Tween-20. Compounds in DMSO were dispensed into wells of a black 384 well plate (Corning 4514) using D300e digital dispenser (Tecan). The ranges of compounds final concentration were 2.62 nM˜10000 nM. 3 μL 2× enzyme solution containing 12.5 nM enzyme was added to wells. […] After 1 hour reaction, 5 μL ADP-Glo reagent (Promga V9102) was added and incubated for 40 minutes. 10 μL Kinase Detection reagent was added and incubated for 40 minutes. Luminescence was measured on a microplate reader (PHERAstar FSX, BMG labtech). The IC50 values were calculated based on inhibition of enzyme activity in the presence of increasing concentrations of compounds.

Sequence of Pol Theta (1-894) (O75417 1-894): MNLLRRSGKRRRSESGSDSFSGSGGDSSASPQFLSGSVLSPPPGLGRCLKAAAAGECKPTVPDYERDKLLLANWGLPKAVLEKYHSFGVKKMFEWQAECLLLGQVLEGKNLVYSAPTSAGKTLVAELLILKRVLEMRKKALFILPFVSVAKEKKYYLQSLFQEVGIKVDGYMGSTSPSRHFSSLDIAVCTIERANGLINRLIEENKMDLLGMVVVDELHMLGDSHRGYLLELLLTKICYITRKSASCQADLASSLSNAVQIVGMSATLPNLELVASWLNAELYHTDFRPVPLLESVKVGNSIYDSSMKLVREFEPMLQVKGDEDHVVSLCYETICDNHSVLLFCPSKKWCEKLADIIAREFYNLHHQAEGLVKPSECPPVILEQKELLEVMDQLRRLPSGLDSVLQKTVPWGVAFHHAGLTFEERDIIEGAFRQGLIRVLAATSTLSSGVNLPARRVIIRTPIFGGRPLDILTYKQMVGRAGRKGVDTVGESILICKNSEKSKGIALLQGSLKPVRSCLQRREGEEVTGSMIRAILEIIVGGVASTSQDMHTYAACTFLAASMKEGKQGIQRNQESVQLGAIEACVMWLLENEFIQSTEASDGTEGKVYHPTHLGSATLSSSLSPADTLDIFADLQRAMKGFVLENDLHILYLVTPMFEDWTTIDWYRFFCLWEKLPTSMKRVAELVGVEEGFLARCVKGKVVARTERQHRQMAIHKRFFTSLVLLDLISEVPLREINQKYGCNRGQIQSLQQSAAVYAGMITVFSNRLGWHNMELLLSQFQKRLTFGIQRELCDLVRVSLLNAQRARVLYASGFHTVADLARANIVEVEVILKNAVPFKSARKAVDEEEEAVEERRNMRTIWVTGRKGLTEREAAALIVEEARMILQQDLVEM

Row | SMILES | IC50 [nM]
1 | N#Cc1ccc(C(=O)Nc2nc3ccc(-c4ccc(Cl)cc4)nc3s2)c(N2CCOCC2)n1 [Example 1, N-(5-(4-chlorophenyl)thiazolo[5,4-b]pyridin-2-yl)-6-cyano-2-morpholinonicotinamide] | 347
2 | COc1ccccc1-c1ccncc1C(=O)Nc1nc2ccc(-c3ccc(Cl)cc3)nc2s1 [Example 2, N-(5-(4-chlorophenyl)thiazolo[5,4-b]pyridin-2-yl)-4-(2-methoxyphenyl)nicotinamide] | 191
3 | COc1ccccc1-c1cnccc1C(=O)Nc1nc2ccc(-c3ccc(Cl)cc3)nc2s1 [Example 3, N-(5-(4-chlorophenyl)thiazolo[5,4-b]pyridin-2-yl)-3-(2-methoxyphenyl)isonicotinamide] | 145
4 | CC(=O)Nc1ccc(-c2ccc3nc(NC(=O)c4ccc(C#N)nc4N4CCOCC4)sc3n2)cc1 [Example 5, N-(5-(4-acetamidophenyl)thiazolo[5,4-b]pyridin-2-yl)-6-cyano-2-morpholinonicotinamide] | 186
5 | COc1ccccc1-c1nc(C#N)ccc1C(=O)Nc1nc2ccc(-c3ccc(Cl)cc3)nc2s1 [Example 6, N-(5-(4-chlorophenyl)thiazolo[5,4-b]pyridin-2-yl)-6-cyano-2-(2-methoxyphenyl)nicotinamide] | 359
6 | COc1ccc(C#N)cc1-c1nc(C#N)ccc1C(=O)Nc1nc2ccc(-c3ccc(Cl)cc3)nc2s1 [Example 7, N-(5-(4-chlorophenyl)thiazolo[5,4-b]pyridin-2-yl)-6-cyano-2-(5-cyano-2-methoxyphenyl)nicotinamide] | 92
7 | COc1ccc(C#N)cc1-c1cc(C)ncc1C(=O)Nc1nc2ccc(-c3ccc(Cl)cc3)nc2s1 [Example 8, N-(5-(4-chlorophenyl)thiazolo[5,4-b]pyridin-2-yl)-4-(5-cyano-2-methoxyphenyl)-6-methylnicotinamide] | 12
8 | COc1ccccc1-c1cnncc1C(=O)Nc1nc2ccc(-c3ccc(Cl)cc3)nc2s1 [Example 9, N-(5-(4-chlorophenyl)thiazolo[5,4-b]pyridin-2-yl)-5-(2-methoxyphenyl)pyridazine-4-carboxamide] | 20
9 | COc1cccc(F)c1-c1nc(C#N)ccc1C(=O)Nc1nc2ccc(-c3ccc(Cl)cc3)nc2s1 [Example 10, N-(5-(4-chlorophenyl)thiazolo[5,4-b]pyridin-2-yl)-6-cyano-2-(2-fluoro-6-methoxyphenyl)nicotinamide] | 149
10 | COc1ccc(C#N)cc1-c1cnccc1C(=O)Nc1nc2ccc(-c3ccc(Cl)cc3)nc2s1 [Example 11, N-(5-(4-chlorophenyl)thiazolo[5,4-b]pyridin-2-yl)-3-(5-cyano-2-methoxyphenyl)isonicotinamide] | 57
11 | COc1ccccc1-n1cncc1C(=O)Nc1nc2ccc(-c3ccc(Cl)cc3)nc2s1 [Example 12, N-(5-(4-chlorophenyl)thiazolo[5,4-b]pyridin-2-yl)-1-(2-methoxyphenyl)-1H-imidazole-5-carboxamide] | 324
12 | N#Cc1ccc(C(=O)Nc2nc3ccc(-c4ccc(Cl)cc4)nc3s2)c(N2CCNC(=O)C2)n1 [Example 13, N-(5-(4-chlorophenyl)thiazolo[5,4-b]pyridin-2-yl)-6-cyano-2-(3-oxopiperazin-1-yl)nicotinamide] | 147
13 | COc1ccccc1-c1cc(C)ncc1C(=O)Nc1nc2ccc(-c3ccc(Cl)cc3)nc2s1 [Example 14, N-(5-(4-chlorophenyl)thiazolo[5,4-b]pyridin-2-yl)-4-(2-methoxyphenyl)-6-methylnicotinamide] | 143
14 | Cn1nccc1-c1ccc2nc(NC(=O)c3ccc(C#N)nc3N3CCOCC3)sc2n1 [Example 15, 6-cyano-N-(5-(1-methyl-1H-pyrazol-5-yl)thiazolo[5,4-b]pyridin-2-yl)-2-morpholinonicotinamide] | 206
15 | COc1ccccc1-c1cnncc1C(=O)Nc1nc2ccc(-c3ccc(NC(C)=O)cc3)nc2s1 [Example 16, N-(5-(4-acetamidophenyl)thiazolo[5,4-b]pyridin-2-yl)-5-(2-methoxyphenyl)pyridazine-4-carboxamide] | 8.2
16 | COc1ccc(C#N)cc1-c1cc(C)ncc1C(=O)Nc1nc2ccc(-c3ccc(NC(C)=O)cc3)nc2s1 [Example 17, N-(5-(4-acetamidophenyl)thiazolo[5,4-b]pyridin-2-yl)-4-(5-cyano-2-methoxyphenyl)-6-methylnicotinamide] | 8.1
17 | COc1ccc(C#N)cc1-c1cc(C)ncc1C(=O)Nc1nc2ccc(-c3ccc(NS(C)(=O)=O)cc3)nc2s1 [Example 18, 4-(5-cyano-2-methoxyphenyl)-6-methyl-N-(5-(4-(methylsulfonamido)phenyl)thiazolo[5,4-b]pyridin-2-yl)nicotinamide] | 11
18 | COc1ccc(C#N)cc1-c1cc(C)ncc1C(=O)Nc1nc2ccc(-c3ccc(C#N)cc3)nc2s1 [Example 19, 4-(5-cyano-2-methoxyphenyl)-N-(5-(4-cyanophenyl)thiazolo[5,4-b]pyridin-2-yl)-6-methylnicotinamide] | 8.5
19 | COc1ccc(C#N)cc1-c1cc(C)ncc1C(=O)Nc1nc2ccc(-c3ccc(C4CC4)cc3)nc2s1 [Example 20, 4-(5-cyano-2-methoxyphenyl)-N-(5-(4-cyclopropylphenyl)thiazolo[5,4-b]pyridin-2-yl)-6-methylnicotinamide] | 54
20 | COc1ccc(C#N)cc1-c1cc(C)ncc1C(=O)Nc1nc2ccc(-c3ccc(C(N)=O)cc3)nc2s1 [Example 21, N-(5-(4-carbamoylphenyl)thiazolo[5,4-b]pyridin-2-yl)-4-(5-cyano-2-methoxyphenyl)-6-methylnicotinamide] | 81
21 | COc1ccc(C#N)cc1-c1cnccc1C(=O)Nc1nc2ccc(-c3ccc(NC(C)=O)cc3)nc2s1 [Example 22, N-(5-(4-acetamidophenyl)thiazolo[5,4-b]pyridin-2-yl)-3-(5-cyano-2-methoxyphenyl)isonicotinamide] | 33
22 | COc1ccc(C#N)cc1-c1cnncc1C(=O)Nc1nc2ccc(-c3ccc(NC(C)=O)cc3)nc2s1 [Example 23, N-(5-(4-acetamidophenyl)thiazolo[5,4-b]pyridin-2-yl)-5-(5-cyano-2-methoxyphenyl)pyridazine-4-carboxamide] | 22
23 | COc1ccc(C(F)(F)F)cc1-c1cc(C)ncc1C(=O)Nc1nc2ccc(-c3ccc(NC(C)=O)cc3)nc2s1 [Example 24, N-(5-(4-acetamidophenyl)thiazolo[5,4-b]pyridin-2-yl)-4-(2-methoxy-5-(trifluoromethyl)phenyl)-6-methylnicotinamide] | 62
24 | COc1ccc(F)cc1-c1cc(C)ncc1C(=O)Nc1nc2ccc(-c3ccc(NC(C)=O)cc3)nc2s1 [Example 25, N-(5-(4-acetamidophenyl)thiazolo[5,4-b]pyridin-2-yl)-4-(5-fluoro-2-methoxyphenyl)-6-methylnicotinamide] | 54
25 | COc1ccc(C(N)=O)cc1-c1cc(C)ncc1C(=O)Nc1nc2ccc(-c3ccc(NC(C)=O)cc3)nc2s1 [Example 26, N-(5-(4-acetamidophenyl)thiazolo[5,4-b]pyridin-2-yl)-4-(5-carbamoyl-2-methoxyphenyl)-6-methylnicotinamide] | 189
26 | COc1ccccc1-c1cc(C#N)ncc1C(=O)Nc1nc2ccc(-c3ccc(NC(C)=O)cc3)nc2s1 [Example 27, N-(5-(4-acetamidophenyl)thiazolo[5,4-b]pyridin-2-yl)-6-cyano-4-(2-methoxyphenyl)nicotinamide] | 67
27 | COCc1ccc(OC)c(-c2cc(C)ncc2C(=O)Nc2nc3ccc(-c4ccc(NC(C)=O)cc4)nc3s2)c1 [Example 28, N-(5-(4-acetamidophenyl)thiazolo[5,4-b]pyridin-2-yl)-4-(2-methoxy-5-(methoxymethyl)phenyl)-6-methylnicotinamide] | 256
28 | COc1ccc(C#N)cc1-c1cc(C)ncc1C(=O)Nc1nc2ccc(-c3ccc(C4(C#N)CC4)cc3)nc2s1 [Example 29, 4-(5-cyano-2-methoxyphenyl)-N-(5-(4-(1-cyanocyclopropyl)phenyl)thiazolo[5,4-b]pyridin-2-yl)-6-methylnicotinamide] | 57
29 | COc1ccc(C#N)cc1-c1cc(C)ncc1C(=O)Nc1nc2ccc(-c3ccc(F)cc3)nc2s1 [Example 30, 4-(5-cyano-2-methoxyphenyl)-N-(5-(4-fluorophenyl)thiazolo[5,4-b]pyridin-2-yl)-6-methylnicotinamide] | 222
30 | COc1cccc(F)c1-c1cnccc1C(=O)Nc1nc2ccc(-c3ccc(NC(C)=O)cc3)nc2s1 [Example 31, N-(5-(4-acetamidophenyl)thiazolo[5,4-b]pyridin-2-yl)-3-(2-fluoro-6-methoxyphenyl)isonicotinamide] | 70
